{"source": "patent US20250108213A1", "about": "“COMPOSITIONS AND METHODS FOR ENHANCING THE EFFECT OF PLATINUM-BASED SYSTEMIC THERAPY” (NOVOCURE GMBH, priority 2023, published 2025)", "key": {"[1]": {"test_system": "γH2AX foci in cell nuclei", "assay": "DNA damage examination by fluorescence microscopy", "type": "cell-based, human", "settings": "treatment alone, all cell lines (A2780, OVCAR-3, A2780cis), relative to control", "protocol": "For DNA damage and cell cycle examination, the following drug concentrations were selected: For A2780—6 μM carboplatin, 1 μM olaparib, and 0.5 μM niraparib; For OVCAR-3-16 μM carboplatin, 0.5 μM olaparib, and 0.8 μM niraparib; For A2780cis—36 μM carboplatin, 10 μM olaparib, and 1.5 μM niraparib. Treated cells were fixed with 4% paraformaldehyde for 10 min, permeabilized for 20 min with 0.5% Triton X-100 in PBS, and blocked with donkey serum (PBS with 0.3% Triton X-100 and donkey serum 1:100). Cells were incubated at 4° C. overnight with anti-γH2AX antibody (Cell Signaling, Danvers, MA, USA; #9718, 1:400), followed by incubation at room temperature for 1 hr with Alexa Flour 488-conjugated secondary antibody (Jackson Immunoresearch, Cambridge, UK; #711-545-152, 1:500) and […] 4′,6-diamidino-2-phenylindole (DAPI; Sigma Aldrich, Rehovot, Israel). LSM 700 laser scanning confocal system (Zeiss, Gottingen, Germany) was utilized to obtain images, and the mean number of foci per nucleus was determined using the FIJI software with the BioVoxxel plugin."}, "[2]": {"test_system": "G2/M cell cycle arrest", "assay": "Cell cycle analysis (7-AAD, flow cytometer)", "type": "cell-based, human", "protocol": "For DNA damage and cell cycle examination, the following drug concentrations were selected: For A2780—6 μM carboplatin, 1 μM olaparib, and 0.5 μM niraparib; For OVCAR-3-16 μM carboplatin, 0.5 μM olaparib, and 0.8 μM niraparib; For A2780cis—36 μM carboplatin, 10 μM olaparib, and 1.5 μM niraparib. Treated cells were fixed with 70% ice-cold ethanol for 30 min, pelleted, washed, and stained for 30 min at 37° C. in phosphate buffered saline (PBS) containing 1% FBS 5 μg/ml 7-AAD (BioLegend), 200 μg/ml RNase, 1 mM EDTA and 0.1% Triton X-100. Data acquisition (at 665/30 nm) and analysis were done on the Cytek Northern Lights flow cytometer and the FlowJo 10.8.1 software (BD Biosciences), respectively."}, "[3]": {"test_system": "OVCAR-3 cells", "protocol": "(§1) Cells were seeded on coverslip (22 mm diameter; 20×10^3 cells/coverslip for A2780 and A2780cis; 40×10^3 cells/coverslip for OVCAR-3). After overnight incubation, the coverslips were transferred into in vitro dishes containing 2 ml of media. TTFields at a frequency of 200 kHz (and intensity of 1 V/cm RMS) were applied to the cells for 72 hr using the INOVITRO system (Novocure, Haifa, Israel).\n(§2) For efficacy outcomes (cell count, overall effect, and apoptosis), various concentrations of carboplatin (MCE MedChemExpress, HY-17393), olaparib (Cayman Chemical, 10621), or niraparib (Cayman Chemical, 20842) were applied, with or without TTFields.\n(§3) Cell count was examined following treatment using Cytek Northern Lights flow cytometer (Cytek Biosciences, USA).\n(§4) Treated cells were harvested, re-plated in 6-well plates (500 cells/well for A2780 and A2780cis; 1000 for cells/well OVCAR-3), and grown for 7 (A2780 and A2780cis) or 21 (OVCAR-3) days. Colonies were stained with 0.5% crystal violet, quantified with ImageJ, and expressed as percentages relative to control. Overall effect was calculated by multiplying colony formation with the corresponding cell count.\n(§5) The surviving fraction predicted for an additive effect between TTFields and drug was calculated per the various drug concentrations by multiplying the actual measured surviving fractions for the individual treatments one by the other (SFcalculated additive=SFTTFields×SFdrug; SF are expressed as probability). Based on the calculated values, a trendline was determined. Additivity, synergy, or antagonism was defined when the calculated additive trendline overlapped, was above, or was below the actual measured line for TTFields+drug, respectively.\n(§6) For quantifying the magnitude of TTFields-drug interaction, interaction index (Ii) values were calculated by the Bliss independence method using mortality values (Mx=1−SFx). Per the various drug concentrations, mortality predicted for an additive effect between TTFields and drug (Mcalculated additive=MTTFields+Mdrug−MTTFields×Mdrug) was divided by the actual measured mortality for TTFields+drug. Additivity was determined when the 95% confidence interval (CI) overlapped 1, synergy when 95% CI<1, and antagonism when 95% CI>1. Lower Ii values were considered indicative of higher synergy levels."}, "[4]": {"test_system": "A2780 cells", "protocol": "as §1, §2, §3, §4, §5, §6"}, "[5]": {"test_system": "OVCAR-3 cells", "assay": "Apoptosis, Annexin V/7-AAD staining, flow cytometer", "type": "cell-based, human", "settings": "TTFields applied with drug", "protocol": "Apoptosis: Treated cells were double-stained with FITC-conjugated annexin V (AnnV) and 7-aminoactinomycin D (7AAD), and data acquisition was performed with a flow cytometer.\nTreated cells were stained with FITC-conjugated Annexin V (AnnV) and 7-Aminoactinomycin D (7-AAD) using a commercial kit (BioLegend, San Diego, CA, USA), according to the manufacturer's instruction. Data acquisition and analysis were done on the Cytek Northern Lights flow cytometer"}, "[6]": {"settings": "TTFields 200 kHz, 1 V/cm RMS, 72 h"}, "[7]": {"settings": "TTFields plus drug vs drug alone"}, "[8]": {"settings": "TTFields plus drug vs drug alone, p<0.0001"}}, "note": "Entries after “also recorded” stand apart in the source; their conditions may differ.", "data": [{"smiles": "O=C(c1cc(Cc2n[nH]c(=O)c3ccccc23)ccc1F)N1CCN(C(=O)C2CC2)CC1", "note": "[olaparib]", "values": [{"measurement": "levels of γH2AX foci, monotherapy", "setting": "[1]", "value": "mild elevation"}, {"measurement": "cell cycle arrest, drug alone", "setting": "[2]", "value": "induced G2/M arrest"}, {"measurement": "type of TTFields-drug interaction (measured vs calculated additive curve)", "setting": "[3]; HRD cells, TTFields 200 kHz, 1 V/cm RMS, 72 h", "value": "additively"}, {"measurement": "type of TTFields-drug interaction, overall effect (cell count and clonogenic effect)", "setting": "[3]; [6]", "value": "additive"}, {"measurement": "type of TTFields-drug interaction, cytotoxic effect (cell count)", "setting": "[3]; TTFields 200 kHz, 1 V/cm RMS, 72 h, BRCA mutant", "value": "additively"}, {"measurement": "effect of TTFields on the drug-induced overall effect (cell count x colony formation)", "setting": "[3]; [7]", "value": "significantly augmented"}, {"measurement": "effect of TTFields on the drug-induced effect, cell count", "setting": "[3]; [8]", "value": "significantly augmented"}, {"measurement": "sensitivity to drug (cell count dose response)", "setting": "[3]; drug alone, 72 h, compared among A2780, OVCAR-3, A2780cis", "value": "highest sensitivity"}, {"measurement": "type of TTFields-drug interaction, cytotoxic effect (cell count)", "setting": "[4]", "value": "synergistically"}, {"measurement": "level of TTFields-drug synergy", "setting": "[4]; A2780 relative to A2780cis cells, by Ii", "value": "higher"}, {"measurement": "type of TTFields-drug interaction (measured vs calculated additive curve)", "setting": "[4]; HRP cells, TTFields 200 kHz, 1 V/cm RMS, 72 h", "value": "high synergy"}, {"measurement": "type of TTFields-drug interaction, overall effect (cell count and clonogenic effect)", "setting": "[4]; [6]", "value": "synergistically"}, {"measurement": "effect of TTFields on the drug-induced overall effect (cell count x colony formation)", "setting": "[4]; [7]", "value": "significantly augmented"}, {"measurement": "effect of TTFields on the drug-induced effect, cell count", "setting": "[4]; [8]", "value": "significantly augmented"}, {"measurement": "effect of TTFields on the apoptotic effect / apoptotic cell fraction", "setting": "[5]", "value": "enhanced; also recorded: elevation"}]}]}
